“And” between values parts separate entries of the source, which are not always exact repeats. Equal entries are not always repeated.
Tested on: KRAS PDC multicell spheroid viability
Assay: Anticancer human tumor 825966-067-R-J1-PDC patient-derived colon carcinoma cell line growth inhibition [KRAS2]
Settings: for viability, T/C: stronger effect = lower value
Outline: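 Combination screen of spheroid viability in tumor-cell co-cultures with endothelial (HUVEC) and mesenchymal stem cell stroma. Each agent was tested in half-log dilutions, topping at clinical Cmax or at 10 microM without a known Cmax.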

[1] = curve of first compound, second compound 0.1 µM
[2] = curve of first compound, second compound 0.316 µM
[3] = curve of first compound, second compound 1 µM
[4] = curve of first compound, second compound 3.16 µM
[5] = curve of first compound, second compound 10 µM
[6] = second compound 0.1 µM, first compound 0.000316 µM
[7] = second compound 0.1 µM, first compound 0.001 µM
[8] = second compound 0.1 µM, first compound 0.00316 µM
[9] = second compound 0.1 µM, first compound 0.01 µM
[10] = second compound 0.1 µM, first compound 0.0316 µM
[11] = second compound 0.1 µM, first compound 0.1 µM
[12] = second compound 0.316 µM, first compound 0.000316 µM
[13] = second compound 0.316 µM, first compound 0.001 µM
[14] = second compound 0.316 µM, first compound 0.00316 µM
[15] = second compound 0.316 µM, first compound 0.01 µM
[16] = second compound 0.316 µM, first compound 0.0316 µM
[17] = second compound 0.316 µM, first compound 0.1 µM
[18] = second compound 1 µM, first compound 0.000316 µM
[19] = second compound 1 µM, first compound 0.001 µM
[20] = second compound 1 µM, first compound 0.00316 µM
[21] = second compound 1 µM, first compound 0.01 µM
[22] = second compound 1 µM, first compound 0.0316 µM
[23] = second compound 1 µM, first compound 0.1 µM
[24] = second compound 3.16 µM, first compound 0.000316 µM
[25] = second compound 3.16 µM, first compound 0.001 µM
[26] = second compound 3.16 µM, first compound 0.00316 µM
[27] = second compound 3.16 µM, first compound 0.01 µM
[28] = second compound 3.16 µM, first compound 0.0316 µM
[29] = second compound 3.16 µM, first compound 0.1 µM
[30] = second compound 10 µM, first compound 0.000316 µM
[31] = second compound 10 µM, first compound 0.001 µM
[32] = second compound 10 µM, first compound 0.00316 µM
[33] = second compound 10 µM, first compound 0.01 µM
[34] = second compound 10 µM, first compound 0.0316 µM
[35] = second compound 10 µM, first compound 0.1 µM
[36] = second compound 0.1 µM, first compound 0.316 µM
[37] = second compound 0.1 µM, first compound 1 µM
[38] = second compound 0.1 µM, first compound 3.16 µM
[39] = second compound 0.1 µM, first compound 10 µM
[40] = second compound 0.316 µM, first compound 0.316 µM
[41] = second compound 0.316 µM, first compound 1 µM
[42] = second compound 0.316 µM, first compound 3.16 µM
[43] = second compound 0.316 µM, first compound 10 µM
[44] = second compound 1 µM, first compound 0.316 µM
[45] = second compound 1 µM, first compound 1 µM
[46] = second compound 1 µM, first compound 3.16 µM
[47] = second compound 1 µM, first compound 10 µM
[48] = second compound 3.16 µM, first compound 0.316 µM
[49] = second compound 3.16 µM, first compound 1 µM
[50] = second compound 3.16 µM, first compound 3.16 µM
[51] = second compound 3.16 µM, first compound 10 µM
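Further: spheroids exposed to compounds for 7 days.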
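Wherever viability, T/C is given: 100% = DMSO vehicle control viability.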

Compound: Cn1ncnc1[C@H]1c2n[nH]c(=O)c3cc(F)cc(c23)N[C@@H]1c1ccc(F)cc1 + CC1OCC2(CCN(c3cnc(Sc4ccnc(N)c4Cl)c(N)n3)CC2)C1N
- IC50 [1]: > 100 nM
- IC50 [2]: > 100 nM
- IC50 [3]: > 100 nM
- IC50 [4]: > 100 nM
- IC50 [5]: < 0.316 nM
- viability, T/C [6]: 109%
- viability, T/C [7]: 82%
- viability, T/C [8]: 85.6%
- viability, T/C [9]: 71.5%
- viability, T/C [10]: 74.8%
- viability, T/C [11]: 64.7%
- viability, T/C [12]: 110%
- viability, T/C [13]: 99.8%
- viability, T/C [14]: 103%
- viability, T/C [15]: 106%
- viability, T/C [16]: 89.6%
- viability, T/C [17]: 69.7%
- viability, T/C [18]: 87%
- viability, T/C [19]: 109%
- viability, T/C [20]: 80%
- viability, T/C [21]: 104%
- viability, T/C [22]: 78.5%
- viability, T/C [23]: 79.6%
- viability, T/C [24]: 93.3%
- viability, T/C [25]: 80.7%
- viability, T/C [26]: 86.8%
- viability, T/C [27]: 80%
- viability, T/C [28]: 87.1%
- viability, T/C [29]: 85%
- viability, T/C [30]: 55.1%
- viability, T/C [31]: 18.3%
- viability, T/C [32]: 31.5%
- viability, T/C [33]: 43.9%
- viability, T/C [34]: 37.2%
- viability, T/C [35]: 18.1%

Compound: CC(=O)Nc1cccc(-n2c(=O)n(C3CC3)c(=O)c3c(Nc4ccc(I)cc4F)n(C)c(=O)c(C)c32)c1 + C=CC(=O)N1CCN(c2nc(=O)n(-c3c(C)ccnc3C(C)C)c3nc(-c4c(O)cccc4F)c(F)cc23)C(C)C1
- IC50 [1]: 17 nM
- IC50 [2]: 22.8 nM
- IC50 [3]: > 31.6 nM
- IC50 [4]: 27.5 nM
- IC50 [5]: 14.1 nM
- viability, T/C (second compound 0.1 µM, first compound 0.0001 µM): 91.9%
- viability, T/C [6]: 84.9%
- viability, T/C [7]: 99.5%
- viability, T/C [8]: 128%
- viability, T/C [9]: 72.5%
- viability, T/C [10]: 23.7%
- viability, T/C (second compound 0.316 µM, first compound 0.0001 µM): 84.8%
- viability, T/C [12]: 82.7%
- viability, T/C [13]: 111%
- viability, T/C [14]: 129%
- viability, T/C [15]: 95.6%
- viability, T/C [16]: 31.8%
- viability, T/C (second compound 1 µM, first compound 0.0001 µM): 92.2%
- viability, T/C [18]: 89.4%
- viability, T/C [19]: 99.8%
- viability, T/C [20]: 114%
- viability, T/C [21]: 102%
- viability, T/C [22]: 52.5%
- viability, T/C (second compound 3.16 µM, first compound 0.0001 µM): 72.2%
- viability, T/C [24]: 97.7%
- viability, T/C [25]: 95.4%
- viability, T/C [26]: 97.3%
- viability, T/C [27]: 80.2%
- viability, T/C [28]: 45.9%
- viability, T/C (second compound 10 µM, first compound 0.0001 µM): 81.3%
- viability, T/C [30]: 89.5%
- viability, T/C [31]: 77.3%
- viability, T/C [32]: 101%
- viability, T/C [33]: 55.2%
- viability, T/C [34]: 37.6%

Compound: COc1cc(Nc2ncc3c(n2)-c2ccc(Cl)cc2C(c2c(F)cccc2OC)=NC3)ccc1C(=O)O + CNCc1ccccc1-c1csc(C(C)Nc2nc(C)nc3cc(OC)c(OC)cc23)c1
- IC50 [1]: > 10000 nM
- IC50 [2]: > 10000 nM
- IC50 [3]: > 10000 nM
- IC50 [4]: < 31.6 nM
- IC50 [5]: < 31.6 nM
- viability, T/C [10]: 95.3%
- viability, T/C [11]: 178%
- viability, T/C [36]: 165%
- viability, T/C [37]: 150%
- viability, T/C [38]: 167%
- viability, T/C [39]: 155%
- viability, T/C [16]: 132%
- viability, T/C [17]: 145%
- viability, T/C [40]: 124%
- viability, T/C [41]: 140%
- viability, T/C [42]: 147%
- viability, T/C [43]: 134%
- viability, T/C [22]: 108%
- viability, T/C [23]: 123%
- viability, T/C [44]: 159%
- viability, T/C [45]: 156%
- viability, T/C [46]: 142%
- viability, T/C [47]: 120%
- viability, T/C [28]: 0.27%
- viability, T/C [29]: 2.41%
- viability, T/C [48]: 15.8%
- viability, T/C [49]: 0.43%
- viability, T/C [50]: 0.37%
- viability, T/C [51]: 4.13%
- viability, T/C [34]: 0.16%
- viability, T/C [35]: 0.15%
- viability, T/C (second compound 10 µM, first compound 0.316 µM): 0.17%
- viability, T/C (second compound 10 µM, first compound 1 µM): 0.16%
- viability, T/C (second compound 10 µM, first compound 3.16 µM): 0.17%
- viability, T/C (second compound 10 µM, first compound 10 µM): 0.22%

Compound: CC(C)NCC(C(=O)N1CCN(c2ncnc3c2C(C)CC3O)CC1)c1ccc(Cl)cc1 (stereo unspecified) + C=CC(=O)N1CCN(c2nc(OCC3CCCN3C)nc3c2CCN(c2cccc4cccc(C)c24)C3)CC1CC#N
- IC50 (curve of first compound, second compound 0.0316 µM): 2180 nM
- IC50 [1]: 2430 nM
- IC50 [2]: 2140 nM
- IC50 [3]: 1870 nM
- IC50 [4]: 447 nM
- viability, T/C (second compound 0.0316 µM, first compound 0.0316 µM): 105%
- viability, T/C (second compound 0.0316 µM, first compound 0.1 µM): 114%
- viability, T/C (second compound 0.0316 µM, first compound 0.316 µM): 131%
- viability, T/C (second compound 0.0316 µM, first compound 1 µM): 94.2%
- viability, T/C (second compound 0.0316 µM, first compound 3.16 µM): 29.3%
- viability, T/C (second compound 0.0316 µM, first compound 10 µM): 10.8%
- viability, T/C [10]: 83.8%
- viability, T/C [11]: 99.2%
- viability, T/C [36]: 126%
- viability, T/C [37]: 126%
- viability, T/C [38]: 32.3%
- viability, T/C [39]: 9.94%
- viability, T/C [16]: 87.7%
- viability, T/C [17]: 118%
- viability, T/C [40]: 137%
- viability, T/C [41]: 101%
- viability, T/C [42]: 23.3%
- viability, T/C [43]: 9.48%
- viability, T/C [22]: 86.9%
- viability, T/C [23]: 98.3%
- viability, T/C [44]: 124%
- viability, T/C [45]: 88.1%
- viability, T/C [46]: 17.6%
- viability, T/C [47]: 5.49%
- viability, T/C [28]: 84.5%
- viability, T/C [29]: 56.9%
- viability, T/C [48]: 66%
- viability, T/C [49]: 13.9%
- viability, T/C [50]: 2.27%
- viability, T/C [51]: 0.81%

Compound: CC1OCC2(CCN(c3cnc(Sc4ccnc(N)c4Cl)c(N)n3)CC2)C1N (stereo unspecified)
- viability, T/C (compound 0.0316 µM): 82% and 80.9% and 85.5%
- viability, T/C (compound 0.1 µM): 92.7% [middle of 19 runs]
- IC50 (compound alone, run of 08/19/2021): > 10000 nM and 9290 nM
- IC50 (compound alone, run of 08/26/2021): 7.63 µM [middle of 5 runs]
- IC50 (compound alone, run of 09/02/2021): > 10000 nM and 8080 nM
- IC50 (curve of compound): 9310 nM and 8730 nM and > 10000 nM

Compound: Cn1ncnc1[C@H]1c2n[nH]c(=O)c3cc(F)cc(c23)N[C@@H]1c1ccc(F)cc1 + CNCc1ccccc1-c1csc(C(C)Nc2nc(C)nc3cc(OC)c(OC)cc23)c1
- IC50 [1]: > 100 nM
- IC50 [2]: > 100 nM
- IC50 [3]: > 100 nM
- IC50 [4]: 22.4 nM
- IC50 [5]: < 0.316 nM
- viability, T/C [6]: 77%
- viability, T/C [7]: 84.2%
- viability, T/C [8]: 76.4%
- viability, T/C [9]: 64.5%
- viability, T/C [10]: 58.2%
- viability, T/C [11]: 58.3%
- viability, T/C [12]: 99.9%
- viability, T/C [13]: 75.2%
- viability, T/C [14]: 62.5%
- viability, T/C [15]: 57.9%
- viability, T/C [16]: 57.3%
- viability, T/C [17]: 62.2%
- viability, T/C [18]: 85.9%
- viability, T/C [19]: 97.9%
- viability, T/C [20]: 72%
- viability, T/C [21]: 73.5%
- viability, T/C [22]: 70%
- viability, T/C [23]: 86%
- viability, T/C [24]: 87.3%
- viability, T/C [25]: 78.7%
- viability, T/C [26]: 59.9%
- viability, T/C [27]: 89.3%
- viability, T/C [28]: 37.6%
- viability, T/C [29]: 3.27%
- viability, T/C [30]: 0.24%
- viability, T/C [31]: 0.26%
- viability, T/C [32]: 0.49%
- viability, T/C [33]: 0.28%
- viability, T/C [34]: 0.22%
- viability, T/C [35]: 0.19%

From PubChem BioAssay AID1963865 (Molecular Pharmacology Branch, DTP, NCI, 2024)
